{"source": "patent US12012387B2", "about": "“Triazine compound and use thereof” (priority 2018, dated 2024)", "key": {"[1]": {"tested_on": "Gram-negative bacteria and Gram-positive bacteria", "test": "Antibacterial activity, MIC over the four strains (GM)", "format": "cell-based", "settings": "mean of the MIC values of the four strains", "method": "To confirm the antibacterial activity, a minimal inhibitory concentration (MIC) value, which is a minimum concentration at which fungus bodies are not divided, was measured. Specifically, the strains disclosed in the following table 1 were purchased, incubated in each medium up to a mid-log phase, diluted to a fungus body concentration of 2×10^5 cells/100 μl, and inoculated into a micro titrate plate (Nunc, USA). […] A control group was treated with melittine by the same method as above, so as to determine an MIC value for each strain."}, "trypsin": {"tested_on": "trypsin", "test": "Stability against protease (radial diffusion assay after trypsin treatment)", "format": "in vitro ADME", "settings": "24 hours after trypsin culture; FIG. 2", "method": "To confirm the stability against the protease, trypsin degradation was identified by using a radial diffusion assay method after treatment with each of the triazine compounds of the following example. Specifically, the cultured strains (Escherichia coli) were incubated in 10 mL of LB medium at 37° C. for 18 hours, after which 10 μl of the culture fluid was inoculated into 10 mL of fresh BL medium and then further incubated for three hours, so as to obtain bacteria in a mid-logarithmic phase. For the radial diffusion assay method, a bacterial suspension (2×10^6 CFU/mL in LB) was mixed with 0.7% agarose and rapidly dispersed, after which the resulting mixed solution was poured into a 10 cm-long Petri dish. Each 5 μl of the triazine compound solution (10 mg/mL) of the following example was added to 25 μl of trypsin solution (0.2 μg/mL in PBS), and incubated at 37° C. for six hours. A reaction was terminated by freezing with liquid nitrogen, after which each 10 μl was taken, seeded on circular paper having a diameter of 6 mm placed on the Petri dish containing the agarose, and incubated overnight at 37° C. To quantify the inhibitory activity, the clearance zones of bacteria around the circular paper were measured to confirm the antibacterial activity. As a control group, melittine was used."}}}
{"smiles": "CC[C@H](C)[C@H](NC(=O)CN)C(=O)NCC(=O)N[C@@H](C)C(=O)N[C@H](C(=O)N[C@@H](CC(C)C)C(=O)N[C@@H](CCCCN)C(=O)N[C@H](C(=O)N[C@@H](CC(C)C)C(=O)N[C@H](C(=O)N[C@H](C(=O)NCC(=O)N[C@@H](CC(C)C)C(=O)N1CCC[C@H]1C(=O)N[C@@H](C)C(=O)N[C@@H](CC(C)C)C(=O)N[C@H](C(=O)N[C@@H](CO)C(=O)N[C@@H](Cc1c[nH]c2ccccc12)C(=O)N[C@H](C(=O)N[C@@H](CCCCN)C(=O)N[C@@H](CCCNC(=N)N)C(=O)N[C@@H](CCCCN)C(=O)N[C@@H](CCCNC(=N)N)C(=O)N[C@@H](CCC(N)=O)C(=O)N[C@@H](CCC(N)=O)C(N)=O)[C@@H](C)CC)[C@@H](C)CC)[C@@H](C)O)[C@@H](C)O)C(C)C)C(C)C", "note": "[Melittin]", "values": [{"measurement": "GM", "setting": "[1]", "result": 3.8, "unit": "µM"}, {"measurement": "antibacterial activity against E. coli after trypsin culture", "setting": "trypsin", "result": "remarkable decrease in the antibacterial activity"}]}
